We go through one compound from ChEMBL document CHEMBL4725370, “Discovery of Proteolysis-Targeting Chimera Molecules that Selectively Degrade the IRAK3 Pseudokinase” (J Med Chem, 2020).

For test [1], the system named is THP-1. Kind of test: Selectivity ratio of Kd(app) for displacement of polymer supported probe 25 binding to IRAK1 in human THP-1 cell lysates to Kd(app) for displacement of polymer supported probe 25 binding to IRAK3 in human THP-1 cell lysates.
Test [2] deals with THP-1. In words: Selectivity ratio of Kd(app) for displacement of polymer supported probe 25 binding to GSG2 in human THP-1 cell lysates to Kd(app) for displacement of polymer supported probe 25 binding to IRAK3 in human THP-1 cell lysates.

As to `CC(C)c1ccn2ncnc(N[C@H]3CC[C@@H](N4CCN(C(=O)CCC(=O)N5CCC(CCN6CCN(c7ccc8c(c7)C(=O)N(C7CCC(=O)NC7=O)C8=O)CC6)CC5)CC4)CC3)c12` (some centres not stated), the Selectivity ratio was 82 in the test with THP-1 [1] and 23 with THP-1 [2].
